Test results taken from PMC7468596, “Potent In Vitro α-Glucosidase and β-Secretase Inhibition of Amyrin-Type Triterpenoid Isolated from Datura metel Linnaeus (Angel's Trumpet) Fruits” (BioMed Research International, 2020).

What was measured:
[1] = biological target: β-secretase (BACE1) (Homo sapiens, UniProt P56817); assay: BACE1 FRET enzyme assay, pH […]; assay type: biochemical
[2] = biological target: T1, α-glucosidase (rat intestinal); assay: p-nitrophenyl-α-D-glucopyranoside hydrolysis, […] nm, crude intestinal enzyme; assay type: biochemical
T1 construct: supernatant of rat intestinal acetone powder

β-secretase (BACE1), sequence (P56817 46-457): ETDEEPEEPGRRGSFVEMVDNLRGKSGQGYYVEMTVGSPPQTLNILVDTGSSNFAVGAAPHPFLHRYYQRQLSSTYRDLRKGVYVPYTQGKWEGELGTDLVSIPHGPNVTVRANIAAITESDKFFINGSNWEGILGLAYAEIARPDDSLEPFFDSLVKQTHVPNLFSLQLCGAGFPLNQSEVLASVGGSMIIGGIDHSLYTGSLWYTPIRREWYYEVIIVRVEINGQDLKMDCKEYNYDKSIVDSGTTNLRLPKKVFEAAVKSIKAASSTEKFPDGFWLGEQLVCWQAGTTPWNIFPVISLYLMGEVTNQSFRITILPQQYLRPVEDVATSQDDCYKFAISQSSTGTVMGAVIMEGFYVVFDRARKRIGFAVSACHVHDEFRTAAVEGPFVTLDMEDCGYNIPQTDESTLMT

IC50 [1]: 260.7 ± 1.87 µM | IC50 [2]: 830.4 ± 2.01 µM
Compound: CC1(C)CC[C@]2(C)CC[C@]3(C)C(=CC[C@@H]4[C@@]5(C)CCC(=O)C(C)(C)[C@@H]5[C@H](O)C[C@]43C)[C@@H]2C1 [compound 1, daturaolone]
